# Data from US20260297060A1, “COMPOUNDS FOR THE DEGRADATION OF MUTANT BRAF” (C4 THERAPEUTICS, INC., priority 2023, published 2026).
# Key:
# [1] = tested on: A375 human melanoma xenografts; assay: Example 6 efficacy study in A375 human melanoma xenografts (tumor volume, T/C, TGI); format: in vivo, BALB/c nude mice; conditions: 10 mg/kg, p.o., BID × 21 days; for T/C / TGI / Tumor Size on PG-D21: PG-D21; for Tumor Size on PG-D21 / Tumor volume: Mean ± SEM
# Description: For efficacy study, compounds were tested in the A375 human melanoma xenografts. Known BRAF inhibitors encorafenib, and dabrafenib were used as positive controls. Encorafenib and dabrafenib were administered to BALB/c nude mice bearing A375 tumors on PG-D1 and dosed PO daily (QD) for 3 weeks. Encorafenib was dosed at 35 mg/kg. Dabrafenib was dosed at 100 mg/kg. Compound 83, Compound 93, Compound 70, and Compound 54 were administered to BALB/c nude mice bearing A375 tumors on PG-DO and dosed PO twice per day (BID) for 3 weeks. Compound 83, Compound 93, Compound 70, and Compound 54 were dosed at 10 mg/kg.
# (§1) The A375 tumor cells were maintained in vitro in DMEM medium supplemented with […] and 1% Penicillin-Streptomycin at 37° C. in an atmosphere of 5% CO2 in air. The tumor cells were routinely subcultured twice weekly. The cells growing in an exponential growth phase were harvested and counted for tumor inoculation.
# (§2) Each mouse was inoculated subcutaneously at the right flank with A375 tumor cells (5×10^6) in 0.2 mL of PBS with Matrigel (PBS: Matrigel=1:1) supplemented for tumor development. Animals were grouped for the treatment on day 16 after tumor inoculation when the average tumor volume reached 221 mm^3 for efficacy study and 386 mm^3 for PKPD study. The test articles administration and the animal numbers in each group are shown in the above experimental Tables.
# (§3) Prior to the onset of drug treatment, mice were measured for tumor size in two dimensions using a caliper, and the tumor volume (mm^3) was calculated using formula V=0.5 a×b^2 where a and b are the long and short diameters of the tumor in mm, respectively. Mice were randomized into different treatment groups based on the tumor volume.
# (§4) The major endpoint was to see if the tumor growth could be delayed or mice could be cured. The tumor size was then used for calculations of T/C value. The T/C value (in percent) is an indication of antitumor effectiveness; T and C are the mean volumes of the treated and control groups, respectively on specified day.
# (§5) TGI was calculated for each group using the formula: TGI (%)=[1−(Ti−T0)/(Ci−C0)]×100; Ti is the average tumor volume of a treatment group on a given day, T0 is the average tumor volume of the treatment group on the day of treatment start, Ci is the average tumor volume of the vehicle control group on the same day with Ti, and C0 is the average tumor volume of the vehicle group on the day of treatment start.
# A375 tumors = assay: In vivo efficacy, A375 xenograft tumor volume (Example 7); set-up: species or system human A375 melanoma xenograft in female BALB/c nude mice; conditions: oral, FIG. 14; for tumor regressions in the xenograft model: 10 mg/kg BID, A375 xenografts; for antitumor response compared with comparators dabrafenib or encorafenib: A375 human melanoma xenografts
# Description: FIG. 14 is a line graph showing in vivo efficacy of dabrafenib, Compound 141, Compound 118, Compound 156, and Compound 180 in the treatment of female BALB/c nude mice bearing A375 tumors. Mice were treated with vehicle (10 μL/g, p.o., BID), dabrafenib (100 mg/kg, p.o., QD), Compound 141 (10 mg/kg, p.o., QD), Compound 141 (10 mg/kg, p.o., BID), Compound 118 (10 mg/kg, p.o., BID), Compound 156 (10 mg/kg, p.o., BID), or Compound 180 (10 mg/kg, p.o., BID) by oral gavage (p.o.). Data points represent group mean change in tumor volume. Error bars represent standard error of the mean (SEM). The x-axis is the time measured in days and the y-axis is A375 tumor volume measured in mm^3. The experiment was conducted as described in Example 7.
# [2] = tested on: A375 human melanoma xenografts; assay: Example 7 efficacy study in A375 human melanoma xenografts (tumor volume, T/C, TGI); format: in vivo, BALB/c nude mice; conditions: 10 mg/kg, p.o., BID × 14 days; for T/C / TGI / Tumor Size on PG-D14 (mean ± SEM): PG-D14
# Description: For efficacy study, agents were tested in the A375 human melanoma xenografts. Compound 118, Compound 156, and Compound 180 were administered to BALB/c nude mice bearing A375 xenografts from day 0 and dosed p.o. twice per day (BID). Compound 141 was administered from day 0 and dosed p.o. twice per day (BID) or dosed p.o. daily (QD) from day 1. Compound 141, Compound 118, Compound 156, and Compound 180 were dosed at 10 mg/kg for 14 days. The known BRAF inhibitor Dabrafenib was used as a positive control. Dabrafenib was administered from day 1 and dosed p.o. daily (QD) for 14 days and dosed at 100 mg/kg.
# as §1
# as §2, with “grouped” for “grouped for the treatment on day 16 after tumor inoculation”, “246” for “221”, “390” for “386”, “study on day 17 after tumor inoculation.” for “study.”, “tables.” for “Tables.”
# as §3, §4, §5
Structure (SMILES),T/C [1] [%],TGI [1] [%],Tumor Size on PG-D21 [1] [mm^3],Tumor volume ([1]; day 0) [mm^3],Tumor volume ([1]; day 4) [mm^3],Tumor volume ([1]; day 7) [mm^3],Tumor volume ([1]; day 11) [mm^3],Tumor volume ([1]; day 14) [mm^3],Tumor volume ([1]; day 18) [mm^3],Tumor volume ([1]; day 21) [mm^3],tumor regressions in the xenograft model (A375 tumors),antitumor response compared with comparators dabrafenib or encorafenib (A375 tumors),T/C [2] [%],TGI [2] [%],Tumor Size on PG-D14 (mean ± SEM) [2] [mm^3],Tumor Volume (mean ± SEM) ([2]; day 0) [mm^3],Tumor Volume (mean ± SEM) ([2]; day 3) [mm^3],Tumor Volume (mean ± SEM) ([2]; day 7) [mm^3],Tumor Volume (mean ± SEM) ([2]; day 10) [mm^3],Tumor Volume (mean ± SEM) ([2]; day 14) [mm^3]
"CCN(C)S(=O)(=O)Nc1ccc(F)c(Oc2ccc3ncc([C@@H]4COC5(CCN(C6CCC(c7cc8c(cc7F)c(N7CCC(=O)NC7=O)nn8C)CC6)CC5)C4)nc3c2)c1C#N (single isomer, unassigned) [Compound 54]",4.1,106.6,90 ± 27,221 ± 11,132 ± 13,90 ± 14,65 ± 13,57 ± 13,53 ± 13,90 ± 27,,,,,,,,,,
"CCN(C)S(=O)(=O)Nc1ccc(F)c(Oc2ccc3ncn([C@H]4COC5(CCN(C6CC(c7cc8c(cc7F)c(N7CCC(=O)NC7=O)nn8C)C6)CC5)C4)c(=O)c3c2)c1C#N (single isomer, unassigned) [Compound 70]",0.9,110.1,19 ± 2,221 ± 10,111 ± 13,66 ± 6,44 ± 3,34 ± 2,24 ± 2,19 ± 2,,,,,,,,,,
"CCN(C)S(=O)(=O)Nc1ccc(F)c(Oc2ccc3ncn(C4CC5(CCN(C6CCC(c7cc8c(cc7F)c(N7CCC(=O)NC7=O)nn8C)CC6F)CC5)C4)c(=O)c3c2)c1C#N (single isomer, unassigned) [Compound 83, 6-[2-cyano-3-[[ethyl(methyl)sulfamoyl]amino]-6-fluoro-phenoxy]-3-[7-[4-[3-(2,4-dioxohexahydropyrimidin-1-yl)-5-fluoro-1-methyl-indazol-6-yl]-2-fluoro-cyclohexyl]-7-azaspiro[3.5]nonan-2-yl]-4-oxo-quinazoline]",0.7,110.3,15 ± 1,221 ± 11,89 ± 11,62 ± 7,39 ± 3,31 ± 2,22 ± 1,15 ± 1,,,,,,,,,,
"Cn1nc(N2CCC(=O)NC2=O)c2cc(F)c(C3CCC(N4CCC5(CC4)CC(n4cnc6ccc(Oc7c(F)ccc(NS(=O)(=O)C8CCCC8)c7C#N)cc6c4=O)C5)CC3)cc21 (single isomer, unassigned) [Compound 93, N-[2-cyano-3-[3-[7-[4-[3-(2,4-dioxohexahydropyrimidin-1-yl)-5-fluoro-1-methyl-indazol-6-yl]cyclohexyl]-7-azaspiro[3.5]nonan-2-yl]-4-oxo-quinazolin-6-yl]oxy-4-fluoro-phenyl]cyclopentanesulfonamide]",3.3,107.4,73 ± 18,221 ± 9,133 ± 6,97 ± 6,69 ± 5,59 ± 5,52 ± 4,73 ± 18,,,,,,,,,,
"CCN(C)S(=O)(=O)Nc1ccc(F)c(Oc2ccc3ncc(OCC4CCN(C5CCC(c6cc7c(cc6F)c(N6CCC(=O)NC6=O)nn7C)CC5)CC4)nc3c2)c1C#N (single isomer, unassigned) [Compound 118, 7-[2-cyano-3-[[ethyl(methyl)sulfamoyl]amino]-6-fluoro-phenoxy]-2-[[1-[4-[3-(2,4-dioxohexahydropyrimidin-1-yl)-5-fluoro-1-methyl-indazol-6-yl]cyclohexyl]-4-piperidyl]methoxy]quinoxaline]",,,,,,,,,,,profound tumor regressions,more robust antitumor response,6.1,115.3,81 ± 8,247 ± 14,326 ± 20,192 ± 20,117 ± 13,81 ± 8
"CCN(C)S(=O)(=O)Nc1ccc(F)c(Oc2ccc3ncc(C4CC5(CCN(C6CCC(c7cc8c(cc7F)c(N7CCC(=O)NC7=O)nn8C)CC6)CC5)C4)nc3c2)c1C#N (single isomer, unassigned) [Compound 180, 7-[2-cyano-3-[[ethyl(methyl)sulfamoyl]amino]-6-fluoro-phenoxy]-2-[7-[4-[3-(2,4-dioxohexahydropyrimidin-1-yl)-5-fluoro-1-methyl-indazol-6-yl]cyclohexyl]-7-azaspiro[3.5]nonan-2-yl]quinoxaline]",,,,,,,,,,,profound tumor regressions,more robust antitumor response,7.2,113.9,96 ± 11,247 ± 16,319 ± 22,222 ± 18,151 ± 16,96 ± 11
